The results in this text go back to paper PMC11178787, “Development of a natural product optimization strategy for inhibitors against MraY, a promising antibacterial target” (Nature Communications, 2024).

The structures appear in SMILES notation. Converted amounts (≈) assume the structure as drawn. Bounds are passed on as bounds.

Holding throughout (test): microbe, parasite or virus in culture
Set-up in all cases: CLSI broth microdilution MIC in MHB-II
Background: Broth dilution looks for growth in wells or tubes with falling amounts of substance.

The subject of experiment [1] is T1, Staphylococcus aureus #2310.
T1 construct: #2310
The following applies: Staphylococcus aureus, 18 h, read-out: MIC. Summed up:
(§1)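 Minimum inhibitory concentrations come from a CLSI-recommended broth microdilution method using MHB-II. Bacteria at 5 × 10^5 cfu/mL were exposed to 2-fold serial compound dilutions (final DMSO under 1%) for 18 h at 37 °C. Reported values reflect the highest of three replicate trials or, for certain compounds, one trial.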

For experiment [2], the system named is T2, Enterococcus faecalis 30.
T2 construct: 30
The note with it: Enterococcus faecalis, 30, 18 h, read-out: MIC. Summed up: as §1

The subject of experiment [3] is T3, Enterococcus faecalis 25.
T3 construct: 25
The following applies: Enterococcus faecalis, 25, 18 h, read-out: MIC. The method in brief:
as §1

Experiment [4] deals with T4, Enterococcus faecium 11.
T4 construct: 11
The following applies: Enterococcus faecium, 11, 18 h, read-out: MIC. The method in brief:
as §1

Experiment [5] deals with T5, Enterococcus faecalis 26.
T5 construct: 26
The note with it: Enterococcus faecalis, 26, 18 h, read-out: MIC. The method in brief: as §1

In experiment [6] the test system is T6, Enterococcus faecium 10.
T6 construct: 10
The note with it: Enterococcus faecium, 10, 18 h, read-out: MIC. The method in brief: as §1

The test system of experiment [7] is T7, Enterococcus faecalis 27.
T7 construct: 27
The note with it: Enterococcus faecalis, 27, 18 h, read-out: MIC. The method in brief:
as §1

In experiment [8] the test system is T8, Enterococcus faecalis 24.
T8 construct: 24
The following applies: Enterococcus faecalis, 24, 18 h, read-out: MIC. Summed up:
as §1

The test system of experiment [9] is T9, Enterococcus faecalis 23.
T9 construct: 23
The note with it: Enterococcus faecalis, 23, 18 h, read-out: MIC. Summed up:
as §1

Experiment [10] relates to Enterococcus faecium 9. The note with it: Enterococcus faecium, 9, 18 h, read-out: MIC. The method in brief: as §1
The test system of experiment [11] is Enterococcus faecium 2. The following applies: Enterococcus faecium, 2, 18 h, read-out: MIC. Summed up: as §1
Experiment [12] concerns Enterococcus faecium 3. The following applies: Enterococcus faecium, 3, 18 h, read-out: MIC. Summed up:
as §1

Experiment [13] relates to Enterococcus faecium 7. The following applies: Enterococcus faecium, 7, 18 h, read-out: MIC. The method in brief:
as §1

Experiment [14] deals with T10, Staphylococcus aureus #2932.
T10 construct: #2932
The note with it: Staphylococcus aureus, 18 h, read-out: MIC. The method in brief: as §1

The subject of experiment [15] is T11, Enterococcus faecalis 29.
T11 construct: 29
The following applies: Enterococcus faecalis, 29, 18 h, read-out: MIC. The method in brief:
as §1

For `CCCCCCCCCCCCCCCC(=O)N[C@@H](CCCCN)C(=O)NCc1cccc(CN[C@H](C(=O)O)[C@H](O[C@@H]2O[C@H](CN)[C@@H](O)[C@H]2O)[C@H]2O[C@@H](n3ccc(=O)[nH]c3=O)[C@H](O)[C@@H]2O)c1` [compound 2, analogue 2], the MIC in experiment [1] came to 2 µg/mL (≈ 2.14 µM); in experiment [2], 0.25 µg/mL (≈ 0.268 µM); in experiment [3], 0.25 µg/mL (≈ 0.268 µM); in experiment [4], 1 µg/mL (≈ 1.07 µM); in [5] it was 0.13 µg/mL (≈ 0.139 µM); in [6], 1 µg/mL (≈ 1.07 µM). For the same compound, the MIC in experiment [7] is 0.25 µg/mL (≈ 0.268 µM); in experiment [8] it was 0.25 µg/mL (≈ 0.268 µM); in experiment [9], 0.25 µg/mL (≈ 0.268 µM); in [10] it was 0.5 µg/mL (≈ 0.535 µM); in [11], 1 µg/mL (≈ 1.07 µM); in experiment [12] it was 1 µg/mL (≈ 1.07 µM). Further, the values for the MIC in experiment [13], in experiment [14] and in experiment [15] were 2 µg/mL (≈ 2.14 µM), 1 µg/mL (≈ 1.07 µM) and 0.13 µg/mL (≈ 0.139 µM), respectively.
Consider `CCCCCCCCCCCCCCCC(=O)N[C@@H](CCCNC(=N)N)C(=O)NCc1ccc(CN[C@H](C(=O)O)[C@H](O[C@@H]2O[C@H](CN)[C@@H](O)[C@H]2O)[C@H]2O[C@@H](n3ccc(=O)[nH]c3=O)[C@H](O)[C@@H]2O)cc1` [compound 3, analogue 3], for which the MIC came out at 2 µg/mL (≈ 2.08 µM) in experiment [1]; 0.25 µg/mL (≈ 0.26 µM) in experiment [2]; 0.13 µg/mL (≈ 0.135 µM) in experiment [3]; 1 µg/mL (≈ 1.04 µM) in experiment [4]; 0.13 µg/mL (≈ 0.135 µM) in experiment [5]; 1 µg/mL (≈ 1.04 µM) in experiment [6]. For the same compound, the MIC is 0.25 µg/mL (≈ 0.26 µM) in experiment [7]; 0.13 µg/mL (≈ 0.135 µM) in experiment [8]; 0.13 µg/mL (≈ 0.135 µM) in [9]; 0.5 µg/mL (≈ 0.52 µM) in [10]; 1 µg/mL (≈ 1.04 µM) in experiment [11]; 1 µg/mL (≈ 1.04 µM) in experiment [12]. Also, the values for the MIC in experiment [13], in [14] and in experiment [15] were 1 µg/mL (≈ 1.04 µM), 2 µg/mL (≈ 2.08 µM) and 0.25 µg/mL (≈ 0.26 µM), respectively.
With `CCCCCCCCCCCCCCCC(=O)N[C@@H](CCCNC(=N)N)C(=O)NCc1cccc(CN[C@H](C(=O)O)[C@H](O[C@@H]2O[C@H](CN)[C@@H](O)[C@H]2O)[C@H]2O[C@@H](n3ccc(=O)[nH]c3=O)[C@H](O)[C@@H]2O)c1` [compound 4, analogue 4], the MIC in experiment [1] turned out to be 2 µg/mL (≈ 2.08 µM); in [2], 0.25 µg/mL (≈ 0.26 µM); in [3], 0.25 µg/mL (≈ 0.26 µM); in experiment [4], 1 µg/mL (≈ 1.04 µM); in experiment [5], 0.25 µg/mL (≈ 0.26 µM); in experiment [6] it was 1 µg/mL (≈ 1.04 µM). In addition, the MIC in experiment [7] is under 0.06 µg/mL; in experiment [8], 0.13 µg/mL (≈ 0.135 µM); in [9], 0.13 µg/mL (≈ 0.135 µM); in experiment [10] it was 0.5 µg/mL (≈ 0.52 µM); in [11] it was 2 µg/mL (≈ 2.08 µM); in experiment [12], 1 µg/mL (≈ 1.04 µM). Also, the values for the MIC in [13], in experiment [14] and in experiment [15] were 1 µg/mL (≈ 1.04 µM), 2 µg/mL (≈ 2.08 µM) and under 0.06 µg/mL, respectively.
Consider `CCCCCCCCCCCCCCCC(=O)N[C@@H](CCCCN)C(=O)Nc1ccc(CN[C@H](C(=O)O)[C@H](O[C@@H]2O[C@H](CN)[C@@H](O)[C@H]2O)[C@H]2O[C@@H](n3ccc(=O)[nH]c3=O)[C@H](O)[C@@H]2O)cc1` [compound 5, analogue 5], for which the MIC worked out at 1 µg/mL (≈ 1.09 µM) in experiment [1]; 0.13 µg/mL (≈ 0.141 µM) in experiment [2]; 0.25 µg/mL (≈ 0.272 µM) in [3]; 0.5 µg/mL (≈ 0.543 µM) in experiment [4]; 0.13 µg/mL (≈ 0.141 µM) in experiment [5]; 0.5 µg/mL (≈ 0.543 µM) in experiment [6]. For the same compound, the MIC in experiment [7] was 0.25 µg/mL (≈ 0.272 µM); in experiment [8], 0.25 µg/mL (≈ 0.272 µM); in experiment [9], 0.13 µg/mL (≈ 0.141 µM); in experiment [10] it was 0.25 µg/mL (≈ 0.272 µM); in experiment [11], 0.5 µg/mL (≈ 0.543 µM); in [12], 0.5 µg/mL (≈ 0.543 µM). For the same compound, the MIC in experiment [13] is 0.5 µg/mL (≈ 0.543 µM); in experiment [14] it was 1 µg/mL (≈ 1.09 µM); in experiment [15] it was under 0.06 µg/mL.
As to `CCCCCCCCCCCCCCCC(=O)N[C@@H](CCCCN)C(=O)Nc1cccc(CN[C@H](C(=O)O)[C@H](O[C@@H]2O[C@H](CN)[C@@H](O)[C@H]2O)[C@H]2O[C@@H](n3ccc(=O)[nH]c3=O)[C@H](O)[C@@H]2O)c1` [compound 6, analogue 6], the MIC was found to be 0.5 µg/mL (≈ 0.543 µM) in experiment [2]; 0.5 µg/mL (≈ 0.543 µM) in [3]; 1 µg/mL (≈ 1.09 µM) in experiment [4]; 0.25 µg/mL (≈ 0.272 µM) in experiment [5]; 1 µg/mL (≈ 1.09 µM) in experiment [6]; 0.5 µg/mL (≈ 0.543 µM) in experiment [7]. In addition, the MIC in experiment [8] came to 0.5 µg/mL (≈ 0.543 µM); in [9], 0.5 µg/mL (≈ 0.543 µM); in experiment [10], 1 µg/mL (≈ 1.09 µM); in [11], 1 µg/mL (≈ 1.09 µM); in experiment [12], 1 µg/mL (≈ 1.09 µM); in experiment [13] it was 2 µg/mL (≈ 2.17 µM). Besides, the MIC in [15] was found to be 0.25 µg/mL (≈ 0.272 µM).
As for `CCCCCCCCCCCCCCCC(=O)N[C@@H](CCCNC(=N)N)C(=O)Nc1ccc(CN[C@H](C(=O)O)[C@H](O[C@@H]2O[C@H](CN)[C@@H](O)[C@H]2O)[C@H]2O[C@@H](n3ccc(=O)[nH]c3=O)[C@H](O)[C@@H]2O)cc1` [compound 7, analogue 7], the MIC in experiment [1] amounted to 2 µg/mL (≈ 2.11 µM); in experiment [2], 0.25 µg/mL (≈ 0.264 µM); in [3], 0.25 µg/mL (≈ 0.264 µM); in experiment [4] it was 2 µg/mL (≈ 2.11 µM); in experiment [5], 0.13 µg/mL (≈ 0.137 µM); in experiment [6], 1 µg/mL (≈ 1.05 µM). Moreover, the MIC in experiment [7] was 0.25 µg/mL (≈ 0.264 µM); in experiment [8], 0.13 µg/mL (≈ 0.137 µM); in [9], 0.5 µg/mL (≈ 0.527 µM); in experiment [10], 0.25 µg/mL (≈ 0.264 µM); in experiment [11], 0.5 µg/mL (≈ 0.527 µM); in [12], 1 µg/mL (≈ 1.05 µM). For the same compound, the MIC in experiment [13] is 0.5 µg/mL (≈ 0.527 µM); in experiment [15], under 0.06 µg/mL.
On to `CCCCCCCCCCCCCCCC(=O)N[C@@H](CCCNC(=N)N)C(=O)Nc1cccc(CN[C@H](C(=O)O)[C@H](O[C@@H]2O[C@H](CN)[C@@H](O)[C@H]2O)[C@H]2O[C@@H](n3ccc(=O)[nH]c3=O)[C@H](O)[C@@H]2O)c1` [compound 8, analogue 8], for which the MIC in [1] was determined as 2 µg/mL (≈ 2.11 µM); in [2] it was 0.5 µg/mL (≈ 0.527 µM); in experiment [3], 0.5 µg/mL (≈ 0.527 µM); in [4] it was 2 µg/mL (≈ 2.11 µM); in experiment [5] it was 0.25 µg/mL (≈ 0.264 µM); in [6], 1 µg/mL (≈ 1.05 µM). For the same compound, the MIC worked out at 0.5 µg/mL (≈ 0.527 µM) in experiment [7]; 1 µg/mL (≈ 1.05 µM) in experiment [8]; 0.25 µg/mL (≈ 0.264 µM) in experiment [9]; 1 µg/mL (≈ 1.05 µM) in [10]; 2 µg/mL (≈ 2.11 µM) in experiment [11]; 2 µg/mL (≈ 2.11 µM) in experiment [12]. Besides, the results for the MIC in experiment [13], in experiment [14] and in experiment [15] were 1 µg/mL (≈ 1.05 µM), 2 µg/mL (≈ 2.11 µM) and 0.13 µg/mL (≈ 0.137 µM), respectively.
For the compound `C[C@H]1COc2c(N3CCN(C)CC3)c(F)cc3c(=O)c(C(=O)O)cn1c23` [levofloxacin], the MIC was over 32 µg/mL in experiment [1]; 1 µg/mL (≈ 2.77 µM) in [2]; 0.5 µg/mL (≈ 1.38 µM) in experiment [3]; over 32 µg/mL in experiment [4]; 0.5 µg/mL (≈ 1.38 µM) in experiment [5]; over 32 µg/mL in experiment [6]. The MIC in experiment [7] is 1 µg/mL (≈ 2.77 µM); in [8], 1 µg/mL (≈ 2.77 µM); in experiment [9], 1 µg/mL (≈ 2.77 µM); in [10] it was over 32 µg/mL; in experiment [11], over 32 µg/mL; in experiment [12], over 32 µg/mL. The MIC in experiment [13] was 0.5 µg/mL (≈ 1.38 µM); in [14], over 32 µg/mL; in [15], 0.5 µg/mL (≈ 1.38 µM).
